Results published in article PMC5980705 (Pediatric blood & cancer, 2018).

How the values were obtained:
[1] = Pharmacokinetic studies of crizotinib and dasatinib in patients; assay type: in vivo, human
[2] = cited from earlier work
BCRP = details: cited from earlier work
p-glycoprotein = details: cited from earlier work
[3] = system: ERK (p-ERK/total ERK) in peripheral-blood mononuclear cells; assay: Total and phosphorylated ERK in PBMC before and 3 hours after dasatinib; assay type: in vivo, human; details: after dosing of dasatinib, paired samples
[4] = in the combination of dasatinib and crizotinib, administered once daily, children

Row | SMILES | Tmax ([1]; human, in vivo) [h] | half-life ([1]; human, in vivo) [h] | AUC0→t ([1]; human, in vivo, 50 mg/m2) | Cmax ([1]; human, in vivo, 50 mg/m2) [µg/mL] | AUC0→t ([1]; human, in vivo, 65 mg/m2) | Cmax ([1]; human, in vivo, 65 mg/m2) [µg/mL] | apparent oral clearance ([1]; human, in vivo, po) | CNS penetration [2] | substrate of BCRP (BCRP) | substrate of p-glycoprotein (p-glycoprotein) | change in ratio of p-ERK/total ERK in PBMC [3] | maximum tolerated dose (MTD) [4] [mg/m^2] | AUC0→t ([1]; dose 215 mg/m^2, day 1, 8 patients, t=∞, median (range)) | AUC0→t ([1]; dose 215 mg/m^2, day 14, 4 patients, t=24 hours, median (range)) | Cmax ([1]; human, in vivo, 165 mg/m2) | Cmax ([1]; human, in vivo, 165 mg/m2, Cmax) [µg/mL] | half-life ([1]; human, in vivo, elimination half-life, crizotinib day 1 of therapy, 25 patients, median, range 9.8 to 34.7) [h] | half-life ([1]; human, in vivo, elimination half-life, crizotinib day 14 of therapy, 19 patients, median, range 8.0 to 36.5) [h]
1 | Cc1nc(Nc2ncc(C(=O)Nc3c(C)cccc3Cl)s2)cc(N2CCN(CCO)CC2)n1 [Dasatinib] | 2.1 | 4.4 | 593.8 (388.1 to 1,521.1) ng/mL/hr | 0.12 | 863.9 (721.9 to 1,006) ng/mL/hr | 0.209 | 1,328 mL/min/m^2 | more limited than initially recognized | substrate of p-glycoprotein and BCRP | substrate of p-glycoprotein | No statistically significant changes | 50 |  |  |  |  |  | 
2 | C[C@@H](Oc1cc(-c2cnn(C3CCNCC3)c2)cnc1N)c1c(Cl)ccc(F)c1Cl [Crizotinib] | 4.1 |  |  |  |  |  |  | minimal and probably inadequate for the treatment of primary CNS cancers |  |  |  | 215 | 5,326.3 (2,068.3 to 12,182.9) ng/mL/hr | 3,118.9 (1,693.8 to 4,278.5) ng/mL/hr | 155.5 (55.8 to 324.4) ng/mL | 0.156 | 13.1 | 12.8
